Values after ≈ are worked out from the molar mass of the structure shown. “Also recorded” adds a separate entry of the source. Where two headings read alike, the source gives them in different places.
Legend:
[1] = cited from earlier work
[2] = tested on: human embryonic cell line H9; test: Cytotoxicity assay (MTS), embryonic cytotoxicity; assay type: cell-based; details: H9 cells, 3 days, 25% inhibitory concentration
Procedure: (§1) A set of 30 compounds of known teratogenicity was selected to establish and validate the µP-hPST (Table 1). The compounds include equal number of non-teratogens and teratogens, and differ in chemical property and therapeutic usage. Before tested in the µP-hPSC colonies, the cytotoxicity profile of each compound was acquired. Two cell lines, hPSC line H9 and adult human dermal fibroblast line aHDF, were tested to represent embryonic cytotoxicity and general cytotoxicity of the compound respectively (Supplementary Figs S1, S2). The IC25 values, which were the 25% inhibitory concentrations, were calculated as the highest non-cytotoxic concentrations of the compound (Table 2, Fig. 1).
(§2) Human embryonic cell line H9 (WiCell Research Institute, Inc) and adult human dermal fibroblast (aHDF, Lonza) were cultured as previously described. Briefly, H9 cells were cultured in tissue culture plates coated with Matrigel^TM (354277, BD Biosciences) in mTeSR^TM1 medium (05850, StemCell^TM Technologies). Dispase (07923, StemCell^TM Technologies) treatment and mechanical scraping were applied during normal subculture. The aHDF cells was cultured in DMEM medium (10569-010, Gibco), supplemented with 10% FBS (SV30160.03, Thermo Scientific Hyclone) and 1% Pen-Strep (09367-34, Nacalai Tesque). Cells were subcultured every 5–6 days using 0.25% Trypsion-EDTA (25200-114, Gibco) to detach the cells.
(§3) The adverse effect of test compounds on cell proliferation and viability was detected using CellTiter 96® AQueous One Solution Cell Proliferation Assay (MTS, G3580, Promega). 10,000 H9 cells or 500 aHDF cells were seeded in 96-well tissue culture plates. For H9 cells, Matrigel^TM was coated before seeding. For each compound, 8 concentrations from serial 5-fold dilutions were tested besides the vehicle controls. Cells were cultured for 3 days with medium half change every day before cell viability was measured. Each drug was tested in three independent runs and its IC25 values (inhibitory concentrations which can cause 25% of reduction in cell number) were acquired by logistic regression using OriginPro 9.

[3] = tested on: adult human dermal fibroblasts (aHDF); test: Cytotoxicity assay (MTS), general cytotoxicity; assay type: cell-based; details: aHDF cells, 3 days, 25% inhibitory concentration
Procedure: as §1, §2, §3

[4] = tested on: µP-hPSC colonies (H9) under mesoendoderm induction; test: µP-hPST: mesoendoderm pattern disruption in µP-hPSC colonies and two-step teratogen classification; details: for Teratogenicity in µP-hPST / Teratogenicity in µP-hPST (in words): two-step classification rule; for Mesoendoderm pattern disruption seen in T fluorescent images: 3 days of compound exposure, in words
[5] = tested on: human pluripotent stem cells; set-up: method as in PMID 24154490; details: cited from earlier work
[6] = cited from earlier work; for In vivo teratogenicity: Table 1, known teratogenicity; for In vivo teratogenicity (in words): Supplementary Tables S2, S3
hPSC = tested on: hPSC; set-up: method as in PMID 24123775; details: cited from earlier work
[7] = human plasma, ref U.S. FDA website, EMA website or published journals (Supplementary Table S1)

| SMILES | Cmax [1, 7] | IC25H9 [2] | IC25aHDF [3] | Teratogenicity in µP-hPST [4] | Teratogenicity in other in vitro assays [5] | In vivo teratogenicity [6] | Teratogenicity in other in vitro assays (hPSC) | Mesoendoderm pattern disruption seen in T fluorescent images [4] | In vivo teratogenicity (in words) [6] | Teratogenicity in µP-hPST (in words) [4] | Defects caused in newborns [6] | Classification in the Targeted Biomarker Assay (in words) (hPSC) | Anomalies known to be induced [6] | Cmax ([1]; compounds tested previously) |
| --- | --- | --- | --- | --- | --- | --- | --- | --- | --- | --- | --- | --- | --- | --- |
| Cc1ccc(NC(=O)c2ccc(CN3CCN(C)CC3)cc2)cc1Nc1nccc(-c2cccnc2)n1 [Imatinib] | 1560 ng/mL | 19.5 µg/mL (≈ 39.5 µM) | 2.7 µg/mL (≈ 5.47 µM) |  |  |  |  |  |  |  |  |  |  |  |
| C[C@](N)(Cc1ccc(O)c(O)c1)C(=O)O [Methyldopa] | 7500 ng/mL | 23.2 µg/mL (≈ 110 µM) | 15.9 µg/mL (≈ 75.3 µM) | NON | NON[7] | NON |  |  |  |  |  |  |  |  |
| CCOC(=O)N1CCC(=C2c3ccc(Cl)cc3CCc3cccnc32)CC1 [Loratadine] |  | 24 µg/mL (≈ 62.7 µM) | 3.2 µg/mL (≈ 8.36 µM) |  |  | NON | NON[6] |  |  |  |  |  |  |  |
| Cn1c(=O)c2c(ncn2C)n(C)c1=O [Caffeine] | 10000 ng/mL | 85.4 µg/mL (≈ 440 µM) | 129 µg/mL (≈ 664 µM) |  |  |  |  |  |  |  |  |  |  |  |
| Nc1nc2ncc(CNc3ccc(C(=O)N[C@@H](CCC(=O)O)C(=O)O)cc3)nc2c(=O)[nH]1 [Folic acid] | 270 ng/mL | 888 µg/mL (≈ 2010 µM) | 894 µg/mL (≈ 2030 µM) | NON |  |  |  |  |  |  |  |  |  |  |
| COc1cc2ncnc(Nc3ccc(F)c(Cl)c3)c2cc1OCCCN1CCOCC1 [Gefitinib] | 930 ng/mL | 4.6 µg/mL (≈ 10.3 µM) | 1.66 µg/mL (≈ 3.71 µM) | TER |  |  |  |  |  |  |  |  |  |  |
| CS(=O)(=O)OCCCCOS(C)(=O)=O [Busulfan] | 1220 ng/mL | 0.5 µg/mL (≈ 2.03 µM) | 19.2 µg/mL (≈ 78 µM) | TER |  | TER | TER[6] | much smaller and concentrated mesoendoderm patterns were observed | Teratogen |  |  |  |  |  |
| NC(=O)N1c2ccccc2C=Cc2ccccc21 [Carbamazepine] | 11000 ng/mL | 21 µg/mL (≈ 88.9 µM) | 28 µg/mL (≈ 119 µM) | TER |  | TER | TER[6] | decrease both cell differentiation and migration | Teratogen | detect the teratogenic effects | neural tube defects, cardiovascular and urinary tract anomalies, and cleft palate |  |  |  |
| Cc1ncc(C[n+]2csc(CCO)c2C)c(N)n1 [Thiamine] | 110 ng/mL | >1000 µg/mL | >1000 µg/mL | NON |  | NON | NON[6] | slow down or prevent mesoendoderm cell migration | Non-teratogen |  |  |  |  |  |
| N[C@@H](CC(=O)N1CCn2c(nnc2C(F)(F)F)C1)Cc1cc(F)c(F)cc1F [Sitagliptin] | 390 ng/mL | 359 µg/mL (≈ 881 µM) | 77.1 µg/mL (≈ 189 µM) | NON |  | NON | NON[6] |  |  |  |  |  |  |  |
| CC1(C)S[C@@H]2[C@H](NC(=O)[C@H](N)c3ccc(O)cc3)C(=O)N2[C@H]1C(=O)O [Amoxicillin] | 14400 ng/mL | >1000 µg/mL | >1000 µg/mL | NON |  | NON | NON[6] |  | Non-teratogen |  |  |  |  |  |
| CN(C)CCOC(c1ccccc1)c1ccccc1 [Diphenhydramine] |  | 2.4 µg/mL (≈ 9.4 µM) | 31.4 µg/mL (≈ 123 µM) | NON |  |  |  |  |  |  |  |  |  |  |
| CC/C(=C(/CC)c1ccc(O)cc1)c1ccc(O)cc1 [Diethylstilbestrol] | 5.6 ng/mL | 8.8 µg/mL (≈ 32.8 µM) | 6.1 µg/mL (≈ 22.7 µM) | NON | TER[7] | TER |  | promote cell migration | Teratogen | misclassified as a non-teratogen |  |  |  |  |
| O=C1O[C@H]([C@@H](O)CO)C(O)=C1O [Ascorbic acid] | 156000 ng/mL | 105 µg/mL (≈ 596 µM) | 63 µg/mL (≈ 358 µM) | NON |  |  |  |  |  |  |  |  |  |  |
| CCN(CC)CCNC(=O)c1c(C)[nH]c(/C=C2\C(=O)Nc3ccc(F)cc32)c1C [Sunitinib] | 30 ng/mL | 0.89 µg/mL (≈ 2.23 µM) |  | TER | TER[7] | TER |  | promote mesoendoderm differentiation while decrease collective cell migration | Teratogen |  |  |  |  |  |
| Cn1cc[nH]c1=S [Methimazole] |  | 252 µg/mL (≈ 2210 µM) | >1000 µg/mL | TER |  | TER |  | promote mesoendoderm differentiation while decrease collective cell migration | Teratogen |  |  |  |  |  |
| NNC(=O)c1ccncc1 [Isoniazid] | 3090 ng/mL | 370 µg/mL (≈ 2700 µM) | 488 µg/mL (≈ 3560 µM) | NON |  | NON | NON[6] |  |  |  |  |  |  |  |
| O=C1NC(=O)C(c2ccccc2)(c2ccccc2)N1 [Diphenylhydantoin] | 20000 ng/mL | 56 µg/mL (≈ 222 µM) | 140 µg/mL (≈ 555 µM) | TER |  | TER | NON[6] | slow down or prevent mesoendoderm cell migration | Teratogen | correctly classify; also recorded: detect the teratogenic effects |  | misclassified | orofacial, limb, cardiovascular and neurobehavioral anomalies |  |
| COc1ccccc1Oc1c(NS(=O)(=O)c2ccc(C(C)(C)C)cc2)nc(-c2ncccn2)nc1OCCO [Bosentan] | 8170 ng/mL | 43.8 µg/mL (≈ 79.4 µM) | 19.9 µg/mL (≈ 36.1 µM) | TER |  | TER | NON[6] |  | Teratogen | correctly classify |  | misclassified |  |  |
| Nc1nc2c(ncn2COCCO)c(=O)[nH]1 [Acyclovir] | 5650 ng/mL | 267 µg/mL (≈ 1190 µM) | 285 µg/mL (≈ 1270 µM) |  |  |  |  |  |  |  |  |  |  |  |
| CC[C@H](C)C(=O)O[C@H]1C[C@@H](C)C=C2C=C[C@H](C)[C@H](CC[C@@H]3C[C@@H](O)CC(=O)O3)[C@H]21 [Lovastatin] | 10 ng/mL |  | 0.68 µg/mL (≈ 1.68 µM) | TER |  | TER | NON[6] | promote cell migration | Teratogen | correctly classify |  | misclassified |  |  |
| CN(C)CCOC(C)(c1ccccc1)c1ccccn1 (stereo not shown) [Doxylamine] | 120 ng/mL | 87 µg/mL (≈ 322 µM) | 45 µg/mL (≈ 166 µM) | NON |  |  |  |  |  |  |  |  |  |  |
| CC1(C)S[C@@H]2[C@H](NC(=O)Cc3ccccc3)C(=O)N2[C@H]1C(=O)O [Penicillin G] |  |  |  |  |  |  |  |  |  | Non-teratogen |  |  |  | 400000 ng/mL |
| CCN(CC)CCNC(=O)c1cc(Cl)c(N)cc1OC [Metoclopramide] | 40 ng/mL | 162 µg/mL (≈ 540 µM) | 154 µg/mL (≈ 514 µM) | NON |  | NON | NON[6] |  | Non-teratogen |  |  |  |  |  |
| CC(=O)Nc1ccc(O)cc1 [Acetaminophen] | 24000 ng/mL | 171 µg/mL (≈ 1130 µM) | 40 µg/mL (≈ 265 µM) |  |  | NON | NON[6] |  |  |  |  |  |  |  |
